Results taken from article PMC10893631, “Receptor-based pharmacophore modeling, molecular docking, synthesis and biological evaluation of novel VEGFR-2, FGFR-1, and BRAF multi-kinase inhibitors” (BMC Chemistry, 2024).

Columns and labels:
Assay in all cases: NCI SRB growth inhibition (single dose 10 µM / five-dose)
Type in all cases: cell-based, human
NCI-H460 = details: Homo sapiens; NCI-H460 (Non-small cell lung cancer), 10 µM; read-out: GI%
Procedure, shortened: (§1)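 Two-stage NCI-60 screen: single-dose test first, then five-dose testing. Growth is scored by sulforhodamine B staining of TCA-fixed cells relative to a time-zero plate, and TGI is taken where Ti = Tz.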

SR = details: Homo sapiens; SR (Leukemia), 10 µM; read-out: GI%
Procedure, shortened: as §1

SN12C = details: Homo sapiens; SN12C (Renal cancer), 10 µM; read-out: GI%
Procedure, shortened: as §1

SK-OV-3 = details: Homo sapiens; SK-OV-3 (Ovarian cancer), 10 µM; read-out: GI%
Procedure, shortened: as §1

A549/ATCC = details: Homo sapiens; A549/ATCC (Non-small cell lung cancer), 10 µM; read-out: GI%
Procedure, shortened: as §1

HS 578 T = details: Homo sapiens; HS 578 T (Breast cancer), 10 µM; read-out: GI%
Procedure, shortened: as §1

CCRF-CEM = details: Homo sapiens; CCRF-CEM (Leukemia), 10 µM; read-out: GI%
Procedure, shortened: as §1

UACC-62 = details: Homo sapiens; UACC-62 (Melanoma), 10 µM; read-out: GI%
Procedure, shortened: as §1

M14 = details: Homo sapiens; M14 (Melanoma), 10 µM; read-out: GI%
Procedure, shortened: as §1

MCF7 = details: Homo sapiens; MCF7 (Breast cancer), 10 µM; read-out: GI%
Procedure, shortened: as §1

SF-539 = details: Homo sapiens; SF-539 (CNS cancer), 10 µM; read-out: GI%
Procedure, shortened: as §1

MDA-MB-231/ATCC = details: Homo sapiens; MDA-MB-231/ATCC (Breast cancer), 10 µM; read-out: GI%
Procedure, shortened: as §1

SF-295 = details: Homo sapiens; SF-295 (CNS cancer), 10 µM; read-out: GI%
Procedure, shortened: as §1

SF-268 = details: Homo sapiens; SF-268 (CNS cancer), 10 µM; read-out: GI%
Procedure, shortened: as §1

RXF 393 = details: Homo sapiens; RXF 393 (Renal cancer), 10 µM; read-out: GI%
Procedure, shortened: as §1

SK-MEL-28 = details: Homo sapiens; SK-MEL-28 (Melanoma), 10 µM; read-out: GI%
Procedure, shortened: as §1

TK-10 = details: Homo sapiens; TK-10 (Renal cancer), 10 µM; read-out: GI%
Procedure, shortened: as §1

786–0 = details: Homo sapiens; 786–0 (Renal cancer), 10 µM; read-out: GI%
Procedure, shortened: as §1

CAKI-1 = details: Homo sapiens; CAKI-1 (Renal cancer), 10 µM; read-out: GI%
Procedure, shortened: as §1

OVCAR-8 = details: Homo sapiens; OVCAR-8 (Ovarian cancer), 10 µM; read-out: GI%
Procedure, shortened: as §1

MDA-MB-435 = details: Homo sapiens; MDA-MB-435 (Melanoma), 10 µM; read-out: GI%
Procedure, shortened: as §1

MDA-MB-468 = details: Homo sapiens; MDA-MB-468 (Breast cancer), 10 µM; read-out: GI%
Procedure, shortened: as §1

SW-620 = details: Homo sapiens; SW-620 (Colon cancer), 10 µM; read-out: GI%
Procedure, shortened: as §1

BT-549 = details: Homo sapiens; BT-549 (Breast cancer), 10 µM; read-out: GI%
Procedure, shortened: as §1

EKVX = details: Homo sapiens; EKVX (Non-small cell lung cancer), 10 µM; read-out: GI%
Procedure, shortened: as §1

KM12 = details: Homo sapiens; KM12 (Colon cancer), 10 µM; read-out: GI%
Procedure, shortened: as §1

Compound | inhibition at 10 µM (NCI-H460) | inhibition at 10 µM (SR) | inhibition at 10 µM (SN12C) | inhibition at 10 µM (SK-OV-3) | inhibition at 10 µM (A549/ATCC) | inhibition at 10 µM (HS 578 T) | inhibition at 10 µM (CCRF-CEM) | inhibition at 10 µM (UACC-62) | inhibition at 10 µM (M14) | inhibition at 10 µM (MCF7) | inhibition at 10 µM (SF-539) | inhibition at 10 µM (MDA-MB-231/ATCC) | inhibition at 10 µM (SF-295) | inhibition at 10 µM (SF-268) | inhibition at 10 µM (RXF 393) | inhibition at 10 µM (SK-MEL-28) | inhibition at 10 µM (TK-10) | inhibition at 10 µM (786–0) | inhibition at 10 µM (CAKI-1) | inhibition at 10 µM (OVCAR-8) | other results
COc1ccc(-c2nc3cc(C(=O)NN=Cc4ccc(OC)c(O)c4)ccc3[nH]2)cc1 [8l, N'-(3-Hydroxy-4-methoxybenzylidene)-2-(4-methoxyphenyl)-1H-benzo[d]imidazole-5-carbohydrazide] | 15% | 72.2% | 27% | < 5% | 5.94% | 46.2% | 89.4% | 47.6% | 63.5% | 77.8% | 42.6% | 26.4% | 51% | 40.4% | 37.2% | 52.5% | < 5% | 18.1% | < 5% | 28.1% | inhibition at 10 µM (MDA-MB-435): 26.5%; inhibition at 10 µM (MDA-MB-468): 44.4%; inhibition at 10 µM (SW-620): 21.8%; inhibition at 10 µM (BT-549): 10.4%; inhibition at 10 µM (EKVX): 12.9%; inhibition at 10 µM (KM12): 34.5%
COc1ccc(-c2nc3cc(C(=O)NN=Cc4cc(OC)c(OC)c(OC)c4)ccc3[nH]2)cc1 [8n, 2-(4-Methoxyphenyl)-N'-(3,4,5-trimethoxybenzylidene)-1H-benzo[d]imidazole-5-carbohydrazide] | < 5% | 26.9% | 9.66% | 20.2% | < 5% | 37.7% | 38.8% | 68.5% | 40.3% | 73.1% | 24.4% | 7.37% | 29.8% | 21% | 20.1% | 31.4% | < 5% | < 5% | 23.8% | 15% | inhibition at 10 µM (MDA-MB-435): 25%; inhibition at 10 µM (MDA-MB-468): < 5%; inhibition at 10 µM (SW-620): < 5%; inhibition at 10 µM (BT-549): < 5%; inhibition at 10 µM (EKVX): < 5%; inhibition at 10 µM (KM12): 13.8%
